We go through 7 compounds from patent US4178442A, “Novel cinnamoyles piperazines and homopiperazines, the method of preparing them and their application in therapeutics” (Delalande S. A., priority 1977, dated 1979).

Structures can show the parent of a compound that is named as a salt. Where two headings read alike, the source gives them in different places.

The test system of data set [1] is anaesthetized dog. Put plainly: Activity on the peripheral circulation, anaesthetized dog. The data set is classed as in vivo. The note with it: for change in vivo at 5 mg/kg / Average arterial pressure: in time / Femoral artery flow: in time: dog. The protocol: The activity on the peripheral circulation was studied on an anaesthetized dog (sodium pentobarbital 30 mg/kg/i.v.). The femoral artery flow was measured by means of an electromagnetic or ultrasonic perivascular Doppler effect probe.

Data set [2] concerns anaesthetized dog. Put plainly: Activity on the cerebral circulation, anaesthetized dog. The data set is classed as in vivo. The note with it: for change in vivo at 5 mg/kg / change in vivo at 2.5 mg/kg: Canis lupus familiaris, iv; for Increase of the extraction of cerebral oxygen: (A-V)/A. How it is done:
The activity on the cerebral circulation was tested on an anaesthetized dog (sodium pentobarbital 30 mg/kg/i.v.). The vertebral artery flow was measured by means of an electromagnetic perivascular or ultrasonic Doppler effect probe. The intracerebral vascular resistance was estimated by the back pressure of the internal carotid artery. […] The increase in the extraction of cerebral oxygen was estimated by the following equation:(A-V)/A in which: A represents the volume of oxygen in the arterial blood (% volume) measured by hemoreflectometry (KIPP and ZONEN's apparatus) and quantity determination of the haemoglobin (DRABKIN's method). V represents the volume of oxygen in the cerebral venous blood (internal maxillary vein). […] It should be noted that the compounds tested were injected intravenously (rapid injection).

A further data set in a line: in vivo. To be noted: iv, read-out: Toxicity: LD50. An excerpt: *LD50 or percentage of mortality which is given between brackets
Data set [3] concerns anaesthetized dog. Put plainly: Antiangorous activity on anaesthetized dog: consumption of oxygen in the left ventricule and cardiac effort (KATZ's index). To be noted: 2.5 mg/kg i.v. slow perfusion; for inhibition in vivo at 2.5 mg/kg: Canis lupus familiaris, iv. The data set is classed as in vivo. The procedure, abridged:
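Dogs anaesthetized with sodium pentobarbital 30 mg/kg i.v.; compounds given by slow i.v. perfusion. Left ventricular O2 consumption = coronary venous flow (Morawitz cannula in coronary sinus) × arteriovenous O2 difference; cardiac effort (Katz index) = mean arterial pressure × heart rate from D2 ECG.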

The mark [4] stands for this setting: Canis lupus familiaris, iv, 5 mg/kg i.v. slow perfusion, read-out: Average arterial pressure.
Where [5] appears, read: Canis lupus familiaris, iv, 5 mg/kg i.v. slow perfusion, read-out: Femoral artery flow.
The mark [6] stands for this setting: dog, 5 mg/kg i.v. rapid injection, read-out: Internal carotid artery back pressure.
Where [7] appears, read: dog, 5 mg/kg i.v. rapid injection, read-out: Vertebral artery flow.
Where [8] appears, read: dog, 5 mg/kg i.v. rapid injection.
Setting [9] is: dog, 2,5 mg/kg i.v. rapid injection.

As for `C=CCOc1ccccc1OCC(O)CN1CCN(C(=O)/C=C/c2cc(OC)c(OC)c(OC)c2)CC1` (stereo not shown) [760 503], the change in vivo at 5 mg/kg in the data set with anaesthetized dog [1] (setting [4]) was -6%. For the same compound, the change in vivo at 5 mg/kg in the data set with anaesthetized dog [1] (setting [5]) worked out at 87%. In the data set with anaesthetized dog [1] (5 mg/kg i.v. slow perfusion), the “Average arterial pressure: in time” value amounted to 15 min and the “Femoral artery flow: in time” value stood at 15 min.

Consider `C(=C\c1ccccc1)/CN1CCN(C(c2ccccc2)c2ccccc2)CC1` [Cinnarizine, cinnarizine, reference compound], for which the change in vivo at 5 mg/kg with anaesthetized dog [1] (setting [5]) came to 100%. In addition, the “Femoral artery flow: in time” value with anaesthetized dog [1] (5 mg/kg i.v. slow perfusion) stood at 30 min. Further, the change in vivo at 5 mg/kg in the data set on anaesthetized dog [2] (setting [6]) is -25%. In addition, in the data set with anaesthetized dog [2] (setting [7]), the change in vivo at 5 mg/kg stood at 130%. Also, in the data set with anaesthetized dog [2] (setting [8]), the “Internal carotid artery back pressure: in time” value is 30 min, the “Vertebral artery flow: in time” value turned out to be 30 min and the “Increase of the extraction of cerebral oxygen” value (shortened to “Increase”) is reported as 0%.

Take `COc1ccc(Cc2nccc3cc(OC)c(OC)cc23)cc1OC` [Papaverine, papaverine, reference compound]: the change in vivo at 2 mg/kg in the data set on anaesthetized dog [1] (Canis lupus familiaris, iv, read-out: Femoral artery flow) is 100%. Further, in the data set on anaesthetized dog [1] (2 mg/kg i.v. slow perfusion), the “Femoral artery flow: in time” value is reported as 1 min. Further, the change in vivo at 2.5 mg/kg in the data set on anaesthetized dog [2] (read-out: Internal carotid artery back pressure) was -45%. In the data set with anaesthetized dog [2] (read-out: Vertebral artery flow), the change in vivo at 2.5 mg/kg is 100%. Also, in the data set on anaesthetized dog [2] (setting [9]), the “Internal carotid artery back pressure: in time” value was 5 min, the “Vertebral artery flow: in time” value was 6 min and the “Increase” value is on record as 0%.

On to `C=CCc1ccccc1OCC(O)CN1CCN(C(=O)/C=C/c2cc(OC)c(OC)c(OC)c2)CC1` (stereo not shown) [760 518], for which the change in vivo at 5 mg/kg in the data set with anaesthetized dog [2] (setting [6]) was -48%. In the data set with anaesthetized dog [2] (dog, 5 mg/kg i.v. rapid injection, read-out: Systemic average arterial pressure), the change in vivo at 5 mg/kg is -15%. Further, the change in vivo at 5 mg/kg in the data set with anaesthetized dog [2] (setting [7]) is 180%. In the data set with anaesthetized dog [2] (setting [8]), the “Internal carotid artery back pressure: in time” value is listed as 5 min, the Systemic average arterial pressure: in time was 5 min and the “Vertebral artery flow: in time” value worked out at 5 min.

On to `COc1cc(/C=C/C(=O)N2CCN(CC(O)CN(C)c3ccccc3)CC2)cc(OC)c1OC` (stereo not shown) [770 495, 1-(3-N-methylanilino-2-hydroxy)propyl-4-(3,4,5-trimethoxycinnamoyl)piperazine, hydrated oxalate], for which the LD50 in the data set “in vivo” stood at 175 mg/kg. Also, in the data set on anaesthetized dog [3], the “Diminution in consumption of O2: in time” value came out at 45 min and the “Diminution in the cardiac effort (IK): in time” value amounted to 30 min. Also, in the data set on anaesthetized dog [3] (read-out: Diminution in consumption of O2), the inhibition in vivo at 2.5 mg/kg turned out to be 74%. In addition, the inhibition in vivo at 2.5 mg/kg with anaesthetized dog [3] (read-out: Diminution in the cardiac effort (IK)) came to 43%. Moreover, the change in vivo at 2.5 mg/kg in the data set with anaesthetized dog [2] (dog, 2,5 mg/kg i.v. rapid injection, read-out: Internal carotid artery back pressure) was -17%. Besides, the change in vivo at 2.5 mg/kg with anaesthetized dog [2] (dog, 2,5 mg/kg i.v. rapid injection, read-out: Systemic average arterial pressure) is -20%. Besides, in the data set on anaesthetized dog [2] (setting [9]), the “Internal carotid artery back pressure: in time” value was 60 min, the Systemic average arterial pressure: in time stood at 20 min, the “Vertebral artery flow: in time” value is listed as 60 min and the “Increase” value is listed as “+188%”.

Turning to `COc1cc(/C=C/C(=O)N2CCN(CC(O)COc3cccc(Cl)c3)CC2)cc(OC)c1OC` (stereo not shown) [760 504], the change in vivo at 5 mg/kg in the data set with anaesthetized dog [1] (setting [4]) is -23%. The change in vivo at 5 mg/kg with anaesthetized dog [1] (setting [5]) was 49%. Also, in the data set on anaesthetized dog [1] (5 mg/kg i.v. slow perfusion), the “Average arterial pressure: in time” value stood at 10 min and the “Femoral artery flow: in time” value was 15 min.

As for `COc1cc(/C=C/C(=O)N2CCN(CC(O)COc3cccc(C)c3)CC2)cc(OC)c1OC` (stereo not shown) [760 521], the change in vivo at 5 mg/kg in the data set with anaesthetized dog [1] (setting [4]) was -19%. The change in vivo at 5 mg/kg in the data set with anaesthetized dog [1] (setting [5]) amounted to 34%. Besides, in the data set with anaesthetized dog [1] (5 mg/kg i.v. slow perfusion), the “Average arterial pressure: in time” value is listed as 30 min and the “Femoral artery flow: in time” value is 15 min.

By LD50 is commonly meant the dose at which mortality reaches 50%.
